Where two headings read alike, the source gives them in different places.
Columns and labels:
Myzus persicae = Myzus persicae - Test (MYZUPE spray application); format: in vivo
Description: Myzus persicae—Test; (MYZUPE Spray Application)
Chinese cabbage (Brassica pekinesis) leaf—disks infected with all instars of the green peach aphid (Myzus persicae), are sprayed with a preparation of the active ingredient at the desired concentration.
100% means that all aphids have been killed; 0% means that none of the aphids have been killed.

Phaedon cochleariae = Phaedon cochleariae Larvae - Test (PHAECO spray application); format: in vivo
Description: Phaedon cochleariae—Test; (PHAECO Spray Application)
Solvent: 78 parts by weight of acetone • 1.5 parts by weight of N,N-dimethylformamide Emulsifier: 0.5 parts by weight of alkylarylpolyglycolether
Once dry, the leaf discs are infested with mustard beetle larvae (Phaedon cochleariae).

Tetranychus urticae = Tetranychus urticae - Test; OP-resistant (TETRUR spray application); format: in vivo; details: for Mortality in % after 6 days obs.: single active ingredient
Description: Tetranychus urticae—Test; OP-Resistant (TETRUR Spray Application)
French beans (Phaseolus vulgaris) which are heavily infested with all stages of the two spotted spidermite (Tetranychus urticae), are sprayed with a preparation of the active ingredient at the desired concentration.

Spodoptera frugiperda = test: whole plant or invertebrate
Method: Spodoptera frugiperda—Test (SPODFR Spray Application)
Solvent: 78.0 parts by weight acetone • 1.5 parts by weight N,N-dimethylformamide Emulsifier: 0.5 parts by weight alkylarylpolyglycolether
Maize (Zea mais) leaf sections are sprayed with a preparation of the active ingredient of the desired concentration. Once dry, the leaf sections are infested with larvae of the fall armyworm (Spodoptera frugiperda).
After the specified period of time, the mortality in % is determined. 100% means that all caterpillars have been killed and 0% means that none of the caterpillars have been killed.

[1] = Myzus persicae, 144 h, read-out: Mortality in % after 6 days obs.
[2] = Tetranychus urticae, 48 h, read-out: Mortality in % after 2 days obs.
[3] = Tetranychus urticae, 144 h, read-out: Mortality in % after 6 days obs.
[4] = Myzus persicae, 24 h, read-out: Mortality in % after 1 day obs.

For `N#CCNC(=O)c1cnccc1C(F)(F)F` [B-9.2, Flonicamid], the “Mortality in % after 1 day obs.” value (Myzus persicae; 20 g/ha) was 0%, the “Mortality in % after 6 days obs.” value (Myzus persicae; 20 g/ha) was 80% and the “Mortality in % after 6 days obs.” value (Phaedon cochleariae; 20 g/ha) was 0%. The “Mortality in % after 6 days obs.” value (Tetranychus urticae; 100 g/ha) was 0%.
`CCOC(=O)OC1=C(c2cc(C)ccc2C)C(=O)N[C@]12CC[C@@H](OC)CC2` [B-23B.1, Spirotetramat] gave a mortality at 4 g/ha (Myzus persicae; [1]) of 70%, a mortality at 20 g/ha (Myzus persicae; [1]) of 70% and a mortality at 20 g/ha (Spodoptera frugiperda; Spodoptera frugiperda, 144 h, read-out: Mortality in % after 6 days obs.) of 0%. It also gave a mortality at 4 g/ha (Tetranychus urticae; [2]) of 0%, a mortality at 20 g/ha (Tetranychus urticae; [2]) of 0% and a mortality at 0.8 g/ha (Tetranychus urticae; [3]) of 70%.
With `CNC(=O)c1cc(Cl)cc(C)c1NC(=O)c1cc(Br)nn1-c1ncccc1Cl` [B-26.1, Chlorantraniliprole (Rynaxypyr)] the “Mortality in % after 6 days obs.” value (Myzus persicae; 0.8 g/ha) was 0%, the “Mortality in % after 6 days obs.” value (Phaedon cochleariae; 0.8 g/ha) was 33% and the “Mortality in % after 2 days obs.” value (Phaedon cochleariae; 4 g/ha) was 50%. For the same molecule, the “Mortality in % after 6 days obs.” value (Phaedon cochleariae; 4 g/ha) was 33%.
`CC(c1ccc(C(F)(F)F)nc1)S(C)(=O)=NC#N` (stereo not drawn) [B-27.27, Sulfoxaflor] showed a mortality at 0.8 g/ha (Myzus persicae; [4]) of 0%, a mortality at 4 g/ha (Myzus persicae; [4]) of 0% and a mortality at 4 g/ha (Phaedon cochleariae; Phaedon cochleariae, 144 h, read-out: Mortality in % after 6 days obs.) of 33%. It also gave a mortality at 4 g/ha (Tetranychus urticae; [3]) of 0%.
For Abamectin [B-6.1], the “Mortality in % after 6 days obs.” value (Phaedon cochleariae; 0.16 g/ha) was 33% and the “Mortality in % after 2 days obs.” value (Tetranychus urticae; 0.8 g/ha) was 70%.
With Ethiprole [B-2B.1] the “Mortality in % after 6 days obs.” value (Myzus persicae; 100 g/ha) was 0%.
In the case of Flubendiamide [B-26.3], the “Mortality in % after 6 days obs.” value (Phaedon cochleariae; 4 g/ha) is reported as 0%, the “Mortality in % after 6 days obs.” value (Phaedon cochleariae; 20 g/ha) is reported as 50% and the “Mortality in % after 2 days obs.” value (Spodoptera frugiperda; 100 g/ha) is reported as 67%. The “Mortality in % after 6 days obs.” value (Tetranychus urticae; 100 g/ha) was 0%.
Imidacloprid [B-4A.4] was tested, and the “Mortality in % after 1 day obs.” value (Myzus persicae; 0.8 g/ha) was 0%, the “Mortality in % after 1 day obs.” value (Myzus persicae; 4 g/ha) was 70% and the “Mortality in % after 1 day obs.” value (Myzus persicae; 20 g/ha) was 80%. The “Mortality in % after 6 days obs.” value (Phaedon cochleariae; 100 g/ha) was 67% and the “Mortality in % after 6 days obs.” value (Tetranychus urticae; 4 g/ha) was 0%.
In the case of Methiocarb [B-1A15], the “Mortality in % after 6 days obs.” value (Phaedon cochleariae; 20 g/ha) is reported as 33%, the “Mortality in % after 2 days obs.” value (Spodoptera frugiperda; 500 g/ha) is reported as 0% and the “Mortality in % after 6 days obs.” value (Spodoptera frugiperda; 500 g/ha) is reported as 33%. For the same molecule, the “Mortality in % after 6 days obs.” value (Tetranychus urticae; 100 g/ha) was 10% and the “Mortality in % after 2 days obs.” value (Tetranychus urticae; 500 g/ha) was 0%.
Spinetoram [B-5.1] was tested, and the “Mortality in % after 6 days obs.” value (Phaedon cochleariae; 0.16 g/ha) was 0%, the “Mortality in % after 6 days obs.” value (Phaedon cochleariae; 0.8 g/ha) was 0% and the “Mortality in % after 6 days obs.” value (Phaedon cochleariae; 4 g/ha) was 0%. The “Mortality in % after 2 days obs.” value (Spodoptera frugiperda; 0.032 g/ha) was 0%, the “Mortality in % after 2 days obs.” value (Spodoptera frugiperda; 0.8 g/ha) was 83% and the “Mortality in % after 2 days obs.” value (Tetranychus urticae; 0.8 g/ha) was 30%. The “Mortality in % after 6 days obs.” value (Tetranychus urticae; 0.8 g/ha) was 70%.
With Spinosad [B-5.2] the “Mortality in % after 6 days obs.” value (Phaedon cochleariae; 0.8 g/ha) was 0%, the “Mortality in % after 6 days obs.” value (Phaedon cochleariae; 4 g/ha) was 0% and the “Mortality in % after 2 days obs.” value (Phaedon cochleariae; 20 g/ha) was 50%. For the same molecule, the “Mortality in % after 2 days obs.” value (Spodoptera frugiperda; 0.16 g/ha) was 0%, the “Mortality in % after 2 days obs.” value (Tetranychus urticae; 0.8 g/ha) was 0% and the “Mortality in % after 6 days obs.” value (Tetranychus urticae; 0.8 g/ha) was 0%. The “Mortality in % after 2 days obs.” value (Tetranychus urticae; 4 g/ha) was 0% and the “Mortality in % after 2 days obs.” value (Tetranychus urticae; 20 g/ha) was 0%.
With Thiacloprid [B-4A.6] the “Mortality in % after 6 days obs.” value (Myzus persicae; 0.16 g/ha) was 0%, the “Mortality in % after 1 day obs.” value (Myzus persicae; 0.8 g/ha) was 70% and the “Mortality in % after 6 days obs.” value (Myzus persicae; 4 g/ha) was 0%. The “Mortality in % after 6 days obs.” value (Phaedon cochleariae; 20 g/ha) was 83%, the “Mortality in % after 2 days obs.” value (Phaedon cochleariae; 100 g/ha) was 0% and the “Mortality in % after 6 days obs.” value (Tetranychus urticae; 4 g/ha) was 0%. The “Mortality in % after 2 days obs.” value (Tetranychus urticae; 100 g/ha) was 0%.
